In patent US11331290B2, “Niclosamide for the treatment of cancer metastasis” (Max-Delbrück-Centrum für Molekulare Medizin in der …, priority 2011, dated 2022):

Assays:
Assay in all cases: Boyden chamber transwell migration assay
Assay type in all cases: cell-based, human
HCT116-vector cells = settings: 24 h
Protocol: (§1) HCT116, SW620, LS174T, SW480 and DLD-1 cells were used in cell migration and invasion analysis performed with Boyden chamber assay. 400 μL containing 2.5×10^5 cells were seeded into each transwell chamber with filter membranes of 12.0 μm pore size (Millipore, Schwalbach, Germany). For invasion filter membranes were coated with 50 μL Matrigel (diluted 1:3 in RPMI-1640; BD Biosciences) 10 minutes before cells were seeded. Fresh medium (600 μL) were added to the bottom chamber and cells were allowed to attach to the insets for 15 hours. Both chambers were treated with 1 μM niclosamide or the respective amount of DMSO and incubated at 37° C. and 5% CO2 in a humidified incubator for 24 hours. Afterwards insets were removed and cells that had migrated through the membrane to the lower chamber were trypsinized and counted in a Neubauer chamber (LO-Laboroptik, Bad Homburg, Germany). Each well was counted ten times. Each migration or invasion experiment was performed in duplicate. The average number of migrated or invaded cells was determined for at least three independent experiments.
(§2) (A) Cell migration of HCT116-vector and HCT116-S100A4 cells exposed to niclosamide treatment. Cells were treated with 1 μM niclosamide for 24 hours and migration rates were measured with Boyden chamber assay. (B) Cell invasion of HCT116-vector and HCT116-S100A4 cells exposed to niclosamide treatment. Cells were treated with 1 μM niclosamide for 24 hours and cell invasion was determined by Boyden chamber assay. (C) Directed migration of HCT116-vector and HCT116-S100A4 cells exposed to niclosamide treatment analyzed by wound healing assay. Wounds of 300 μM width were set in a 60% confluent monolayer of HCT116-vector or HCT116-S100A4 cells on day 1. Cells were treated daily with 1 μM niclosamide for 4 days. Microphotographs of day 4 are presented here with black lines indicating margins of entered wound of day 1; scale bar represents 200 μM. Data represents three independent experiments. (D) Adhesive cell proliferation of HCT116-vector and HCT116-S100A4 cells exposed to niclosamide treatment. Cells were treated daily with 1 μM niclosamide and cell viability was determined with MTT assay. (E) Anchorage-independent cell growth of HCT116-vector and HCT116-S100A4 cells exposed to niclosamide treatment. Cells were plated as single cells into 0.33% (w/v) agarose and treatment (solvent or 1 μM niclosamide) containing medium. After 7 days colonies were visualized by light microscopy at 10× (overview) and 40× (single colony) magnification. (F) Quantification of colonies formed. Number of colonies (of more than 4 cells) was counted and normalized to solvent-treated HCT116-vector cells. Differences of niclosamide vs. solvent-treated cells were analyzed by Student's t test. […]

HCT116-S100A4 cells = settings: 1 μM, 24 h, statistically not significant
Protocol: as §1, §2

HCT116 cells = settings: for cell migration rate, mean %: 1 μM daily for 3 days
Protocol: as §1, with “Both chambers were treated with 1 μM niclosamide or the respective amount of DMSO and incubated at 37° C. and 5% CO2 in a humidified incubator for 24 hours.” left out
(A) Chemical structure of niclosamide and its derivatives. In 2D illustrations the niclosamide structure was compared with the structure of niclosamide derivatives; marked in solid circles or boxes are added chemical groups, marked in grey and surrounded by dotted lines are removed chemical groups. In 3D illustrations grey clouds represent van der Waals surface, red and blue indicate negative and positive charges, respectively. (B) S100A4 expression under treated conditions. HCT116 cells were treated with 1 μM niclosamide or one of the niclosamide derivatives for 24 hours. S100A4 expression was analyzed by qRT-PCR and immunoblot. (C) Cell migration under treated conditions. HCT116 cells were treated with 1 μM niclosamide or one of its derivatives for 24 hours and cell migration was determined by Boyden chambder assay. Cells migrated to the lower chamber were counted and normalized to the number of migrated, solvent-treated HCT116 cells. Comparison of niclosamide or derivative-treated vs. solvent-treated cells was performed by two-sided one-way analysis of variance and Bonferroni post hoc multiple comparison test. Data is given as mean±SE at least four independent experiments each performed in duplicates.
For WNT pathway analysis the following cells were applied: HCT116 cells (heterozygous for gain-of-function-mutated CTNNB1; wt/mut), HAB-68mut cells (deletion mutant of HCT116, expressing only gain-of-function-mutated CTNNB1: −/mut) and HAB-92 wt cells (deletion mutant of HCT116, expressing only wild-type CTNNB1: wt/−). (A) CTNNB1 genotype dependent effect of niclosamide on LEF/TCF transcription factor reporter gene expression. Cells were treated with 1 μM niclosamide for 24 hours. Reporter gene expression was determined by luciferase activity measurement. For each condition and cell line TOPflash expression was normalized to FOPflash expression. (B) CTNNB1 genotype dependent effect of niclosamide on S100A4 expression. Cells were treated with 1 μM niclosamide for 24 hours. S100A4 expression was analyzed by qRT-PCR and immunoblot. (C) CTNNB1 genotype dependent effect of niclosamide on migration rates. Cells were treated with 1 μM niclosamide for 24 hours and cell migration was determined by Boyden chamber assay. Data represents mean±SE of at least three independent experiments. Differences were analyzed by Student's t test (n.s.; not statistically significant). (D) Nuclear localization of CTNNB1 under niclosamide treatment. Nuclear extracts of HCT116 cells treated with the indicated concentrations of niclosamide for 18 hours were analyzed by immunoblot. (E) Effect of niclosamide on CTNNB1/TCF complex. Nuclear extracts of HCT116 cells treated with the indicated concentrations of niclosamide for 18 hours were analyzed by EMSA for the TCF-binding site of the S100A4 promoter. Supershift was performed by addition of a monoclonal anti-CTNNB1 antibody. (F) Presence of CTNNB1 on the S100A4 promoter under niclosamide treatment. HCT116 cells were treated with 1 μM niclosamide for 18 hours and processed for ChIP assay. […]

O=C(Nc1ccc([N+](=O)[O-])cc1Cl)c1cc(Cl)ccc1O [niclosamide, 2′,5-dichloro-4′-nitrosalicylanilide]
migration, mean difference control vs niclosamide (HCT116-vector cells; 1 μM): 57.0%
activity at 1 µM (HCT116-vector cells; Homo sapiens, read-out: number of migrated cells, mean % of control): 43%
migration rate, mean % (HCT116-S100A4 cells; solvent control 145.0%): 117.0%
migration, mean difference control vs niclosamide (HCT116-S100A4 cells): 28%
cell migration rate, mean % (HCT116 cells; 24 hours post-treatment, control 100.0%): 18.7%
cell migration rate, mean % (HCT116 cells; 48 hours post-treatment, control 100.0%): 12.2%
cell migration rate, mean % (HCT116 cells; 72 hours post-treatment, control 108.8%): 10.4%
migration rate, mean difference control vs niclosamide (HCT116 cells; 1 μM, 24 h (relative scale)): 0.54
migration rate, mean (relative to HCT116 control) (HCT116 cells; 1 μM, 24 h, control 1.00): 0.45
migration, mean difference control vs niclosamide (HCT116 cells; 24 hours post-treatment): 81.3%
migration, mean difference control vs niclosamide (HCT116 cells; 48 hours post-treatment): 87.8%
migration, mean difference control vs niclosamide (HCT116 cells; 72 hours post-treatment): 98.4%
